# Measurements as given in patent US9062048B2, “Cyclohexyl-azetidinyl antagonists of CCR2” (Janssen Pharmaceutica NV, priority 2010, dated 2015).
# Target: CCR2 (Homo sapiens (Human), UniProt P41597)
# Assay: MCP-1 Receptor Binding Assay in THP-1 Cells;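 also: THP-1 is a human monocytic cell line, and nonspecific binding was defined with 1 µM unlabeled MCP-1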
# Details: 0.5 nM 125I labeled MCP-1, 2 hours at 30° C., read-out: Inhibition of MCP-1 Binding IC50 MCP1B
# Chain of CCR2 (P41597 whole entry): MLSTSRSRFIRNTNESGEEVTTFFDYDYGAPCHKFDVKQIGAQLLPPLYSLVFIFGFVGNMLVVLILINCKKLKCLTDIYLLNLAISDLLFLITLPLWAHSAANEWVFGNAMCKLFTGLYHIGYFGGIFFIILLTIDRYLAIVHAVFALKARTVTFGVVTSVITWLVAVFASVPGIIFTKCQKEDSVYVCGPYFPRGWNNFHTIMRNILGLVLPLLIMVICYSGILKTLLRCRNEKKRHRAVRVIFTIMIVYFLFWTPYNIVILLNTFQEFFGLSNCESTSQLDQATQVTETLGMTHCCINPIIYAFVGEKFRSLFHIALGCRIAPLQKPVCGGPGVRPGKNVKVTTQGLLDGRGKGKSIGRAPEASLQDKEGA
row,IC50 [nM],Structure (SMILES)
1,> 25000,CC[C@H](O)[C@H]1CC[C@H](N2CC(NC(=O)CNc3nccc4ncc(C(F)(F)F)cc34)C2)CC1 [Example 151]
2,530,"CCC(O)[C@H]1CC[C@@H](N2CC(NC(=O)CNc3cnnc4ccc(C(F)(F)F)cc34)C2)CC1 (stereo partly shown) [Example 152, N-(1-(4-(1-hydroxypropyl)cyclohexyl)azetidin-3-yl)-2-(6-(trifluoromethyl)cinnolin-4-ylamino)acetamide]"
3,6080,"CC[C@@H](O)[C@H]1CC[C@H](N2CC(NC(=O)CNc3nncc4ccc(C(F)(F)F)cc34)C2)CC1 [Example 154, N-(1-((1R,4r)-4-((R)-1-hydroxypropyl)cyclohexyl)azetidin-3-yl)-2-((7-(trifluoromethyl)phthalazin-1-yl)amino)acetamide]"
4,430,"CC(C)[C@@H](O)[C@H]1CC[C@H](N2CC(NC(=O)CNc3nccc4ncc(C(F)(F)F)cc34)C2)CC1 [Example 156, N-(1-((1R,4r)-4-((R)-1-hydroxy-2-methylpropyl)cyclohexyl)azetidin-3-yl)-2-((3-(trifluoromethyl)-1,6-naphthyridin-5-yl)amino)acetamide]"
5,530,"CC(C)C(O)[C@H]1CC[C@@H](N2CC(NC(=O)CNc3cnnc4ccc(C(F)(F)F)cc34)C2)CC1 (stereo partly drawn) [Example 157, N-(1-((1R,4s)-4-((S)-1-hydroxy-2-methylpropyl)cyclohexyl)azetidin-3-yl)-2-((6-(trifluoromethyl)cinnolin-4-yl)amino)acetamide]"
6,1220,"O=C(CNc1ncnc2ccc(C(F)(F)F)cc12)N[C@H]1C[C@H](N2CCC(O)(c3cncs3)CC2)C1 [Example 162, N-((1r,3R)-3-(4-hydroxy-4-(thiazol-5-yl)piperidin-1-yl)cyclobutyl)-2-((6-(trifluoromethyl)quinazolin-4-yl)amino)acetamide]"
7,2600,"N#Cc1cc(NCC(=O)N[C@H]2C[C@@H](N3CCC(O)(c4cncs4)CC3)C2)c2cc(C(F)(F)F)ccc2n1 [Example 163, 2-((2-cyano-6-(trifluoromethyl)quinolin-4-yl)amino)-N-((1s,3s)-3-(4-hydroxy-4-(thiazol-5-yl)piperidin-1-yl)cyclobutyl)acetamide]"
8,> 25000,"N#Cc1cc(NCC(=O)N[C@H]2C[C@H](N3CCC(O)(c4cncs4)CC3)C2)c2cc(C(F)(F)F)ccc2n1 [Example 164, 2-((2-cyano-6-(trifluoromethyl)quinolin-4-yl)amino)-N-((1r,3r)-3-(4-hydroxy-4-(thiazol-5-yl)piperidin-1-yl)cyclobutyl)acetamide]"
9,44,"CC[C@@H](O)C1CCC(N2CC(NC(=O)CNc3nccc4ccc(C(F)(F)F)cc34)C2)CC1 (stereo partly drawn) [Example 167, N-(1-((1R,4s)-4-(1-hydroxypropyl)cyclohexyl)azetidin-3-yl)-2-((7-(trifluoromethyl)isoquinolin-1-yl)amino)acetamide]"
10,> 25000,CC[C@H](O)C1CCC(N2CC(NC(=O)CNc3nccc4ccc(C(F)(F)F)cc34)C2)CC1 (stereo partly shown) [Example 168]
11,35,CC(C)C(O)[C@H]1CC[C@@H](N2CC(NC(=O)CNc3nccc4ccc(C(F)(F)F)cc34)C2)CC1 (stereo partly shown) [Example 169]
12,72,"CCC(O)[C@H]1CC[C@@H](N2CC(NC(=O)CNc3nccc4ccc(C(F)(F)C(F)(F)F)cc34)C2)CC1 (stereo partly drawn) [Example 170, N-(1-((1R,4s)-4-(1-hydroxypropyl)cyclohexyl)azetidin-3-yl)-2-((7-(perfluoroethyl)isoquinolin-1-yl)amino)acetamide]"

row,Structure (SMILES),IC50 [nM]
1,"O=C(CNc1ncnc2ccc(C(F)(F)F)cc12)N[C@H]1C[C@@H](N2CCC(O)(c3cncs3)CC2)C1 [Example 161, N-((1s,3s)-3-(4-hydroxy-4-(thiazol-5-yl)piperidin-1-yl)cyclobutyl)-2-((6-(trifluoromethyl)quinazolin-4-yl)amino)acetamide]",> 25000
